# Experimental data as given in patent US20040166148A1, “Transdermal therapeutic delivery systems with a butenolide” (priority 2003, published 2004).
# Assay: Storage stability of drug solutions: N-oxide content by ion pair reversed phase HPLC
# Format: physicochemical
# Details: solutions stored for 7 days at 40° C.; formulation employing levulinic acid
structure (smiles),measurement,value
CC(=O)CCC(=O)O [levulinic acid],N-oxide content of the formulation,below 0.06%
